The text below walks through data of US20160324836A1, “INJECTABLE DEPOT FORMULATIONS” (pSivida US.Inc., priority 2015, published 2016).

In brackets after ≈: the same amount, converted by molar mass.

This data set in a line: Solubility in ethanol. In kind it is physicochemical. Particulars: organic solvent or mixture. The method, then:
In preferred embodiments, the solvent is ethanol. […] Similarly, preferred kinase inhibitors, such as apatinib, axitinib, cabozantinib, cediranib, crenolanib, foretinib, lenvatinib, linifanib, masitinib, motesanib, nintedanib, pazopanib, pegaptanib, regorafenib, semaxanib, sorafenib, sunitinib, tivozanib, toceranib, vandetanib, vatalanib, bafetinib, bosutinib, dasatinib, imatinib, nilotinib, ponatinib, radotinib, and SU6656, are generally soluble in ethanol, e.g., at 1.0 mg/mL or higher.

`CNC(=O)c1cc(Oc2ccc(NC(=O)Nc3ccc(Cl)c(C(F)(F)F)c3)cc2)ccn1` [sorafenib]: the solubility (in general, the dissolved amount per volume that the medium holds) was around 3300 µg/mL (≈ 7.1 mM).
